{"source": "patent US20030225001A1", "about": "“Preparation of an auricularia auricula polysaccharide and its use in mammals” (priority 2002, published 2003)", "system": "serum lipids (TC, TG, HDL, TC/HDL ratio) in humans", "assay": "Multicenter double-blind random trial: effect of AP on serum total cholesterol and triglycerides in humans", "format": "in vivo, human", "from_the_text": "A multicenter study, based on the Fujian Traditional Chinese Medicine Research Institute protocol, involved 476 patients between November 1994 and August 1996.\nThe total patient population was approximately 61% male, with the AP group being approximately 60% male and the control group approximately 64% male. Patients in each group were […] and averaged approximately 54-55 years of age. 164 patients had total cholesterol (TC) levels of 6.5-8.0 mmol/L, and 275 patients had triglycerides (TG) levels of 1.6-3.0 mmol/L. 131 patients had low high density lipoprotein (HDL) (<1.04 mmole/L for male, HDL<1.17 mmol/L for female). 201 patients had raised TC/HDL ratios (>5).\nPatients with liver, renal and thyroid disease, as well as pregnant women and those who were on medications that could affect serum lipid readings, were excluded. Also excluded were patients who within the last year had had acute myocardial infarction, cerebral vascular diseases, major trauma and/or major surgery, as well as those with severe coronary or renal failure.\nAll medications were taken 2 times daily for 8 weeks. Although medications were administered by capsules, it should be understood that medications could be administered by tablets, liquids and/or pills as well.", "data": [{"compound": "CC(C)OC(=O)C(C)(C)Oc1ccc(C(=O)c2ccc(Cl)cc2)cc1", "note": "[FF, Fenofibrate]", "values": [{"measurement": "Range of decreases (HDL level)", "setting": "HDL, start vs end of 8 weeks", "result": "0.18 ± 0.15", "unit": "mmol/L"}, {"measurement": "End HDL", "setting": "after 8 weeks, AP 3 x 200 mg capsules or FF 100 mg tablet, 2 times daily", "result": "1.06 ± 0.27", "unit": "mmol/L"}, {"measurement": "Start HDL", "setting": "baseline, patients with low HDL", "result": "0.88 ± 0.27", "unit": "mmol/L"}, {"measurement": "End TC", "setting": "total cholesterol after 8 weeks, AP 3 x 200 mg capsules or FF 100 mg tablet, 2 times daily", "result": "6.46 ± 1.33", "unit": "mmol/L"}, {"measurement": "Start TC", "setting": "total cholesterol, baseline, patients with raised TC", "result": "7.81 ± 1.38", "unit": "mmol/L"}, {"measurement": "End TC (table: Effect of AP on triglyceride (TG) level)", "setting": "triglyceride table, after 8 weeks, AP 3 x 200 mg capsules or FF 100 mg tablet, 2 times daily", "result": "1.96 ± 1.10", "unit": "mmol/L"}, {"measurement": "Start TC (table: Effect of AP on triglyceride (TG) level)", "setting": "triglyceride table, baseline, patients with raised TG", "result": "2.94 ± 1.38", "unit": "mmol/L"}]}]}
